Measurements as given in patent US20240043419A1, “CLASS OF 1,7-NAPHTHYRIDINE COMPOUNDS AND APPLICATION THEREOF” (Medshine Discovery Inc., priority 2020, published 2024).

Columns and labels:
[1] = system: tumor cell line LoVo; experiment: in vitro LoVo cell proliferation inhibition assay (CellTiter-Glo cell viability); format: cell-based; details: Homo sapiens, LoVo cells
Description: In this assay, the effect of the compounds on inhibiting cell proliferation was studied by detecting the effect of the compounds on the cell viability in vitro in the tumor cell line LoVo.
Cell viability detection using CellTiter-Glo luminescence assay
The following steps were performed according to the instructions of the Promega CellTiter-Glo Luminescent Cell Viability Detection Kit (Promega-G7573).
(1). A CellTiter-Glo buffer was thawed and allowed to stand to reach room temperature.
(2). A CellTiter-Glo substrate was allowed to stand to reach room temperature.
(3). The CellTiter-Glo buffer was added to the CellTiter-Glo substrate in a bottle to dissolve the substrate to formulate a CellTiter-Glo working solution.
(4). The working solution was vortexed slowly for fully dissolution.
(5). A cell culture plate was taken out and allowed to stand for 30 minutes to equilibrate to room temperature.
(6). 50 μL (equal to half the volume of cell culture solution in each well) of the CellTiter-Glo working solution was added into each well. The cell plate was wrapped with aluminum foil to protect the cell plate from light.
(7). The culture plate was shaken on an orbital shaker for 2 minutes to induce cell lysis.
(8). The culture plate was left at room temperature for 10 minutes to stabilize luminescent signals.
(9). The luminescent signals were detected on a plate reader (SpectraMax i3x of MolecμLar Devices).
The inhibition rate (IR) of the assay compounds was calculated by the following formula:
IR (%)=(1−(RLU of compound−RLU of blank control)/(RLU of vehicle control−RLU of blank control))*100%.
The inhibition rates of different concentrations of compounds were calculated in Excel, and then GraphPad Prism software was used to draw inhibition curves and calculate relevant parameters, including the minimum inhibition rate, maximum inhibition rate, and IC50.

[2] = system: CHK1(p-Ser345); experiment: Assay of CHK1(p-Ser345) in vitro: inhibition of CHK1 phosphorylation in HT29 cells after 4NQO, alpha screen; format: cell-based; details: Homo sapiens, read-out: % Inhibition of CHKI phosphorylation; for inhibition at 0.0002 µM: HT-29, 0.2 nM compound; for inhibition at 0.025 µM: HT-29, 25 nM compound
Description: The assay process was as follows: • 1) When cells HT29 grew to about 80% confluence, the cells were digested and plated on a 96-well plate (80,000 cells/well), and 90 ul of cell suspension was added to each well; the cell plate was placed in a 5% carbon dioxide, 37° C. incubator overnight; • 2) The next day, the supernatant was removed from the cell plate, and 90 ul of compounds with different concentrations were added; the plate was incubated at 37° C. for 1 hour, and then 10 ul of 7 uM 4NQO medium was added; the plate was incubated at 37° C. for 1 hour; • 3) After the incubation was completed, the supernatant was removed, and 50 ul/well cell lysate was added; the plate was shaken and incubated at room temperature for 50 minutes; • 4) After the incubation was completed, 8 ul/well cell lysate was transferred to a 384-well detection plate, and 5 ul of Acceptor was added; the plate was incubated at room temperature for 2 hours; • 5) Then 2 ul of Donor was added, and the plate was incubated at room temperature overnight; • 6) After the incubation was completed, alpha screen reading was performed.

[3] = Pharmacokinetics in vivo in mice, single intravenous or single oral administration, plasma LC-MS/MS; details: mouse, female Balb/c Nude mice
Description: The purpose of this assay is to study the pharmacokinetics of the compound of the present disclosure in the plasma of female Balb/c Nude mice after a single intravenous administration or a single oral administration.
In the intravenous group, plasma samples were collected at 9 time points of 5 minutes, 15 minutes, 30 minutes, 1 hour, 2 hours, 4 hours, 6 hours, 8 hours and 24 hours after administration; in the oral group, plasma samples were collected at 8 time points of 15 minutes, 30 minutes, 1 hour, 2 hours, 4 hours, 6 hours, 8 hours and 24 hours after administration; the samples were analyzed by LC-MS/MS for the plasma concentration data of the compound of the present disclosure, and the pharmacokinetic parameters, such as peak concentration, time to peak, clearance rate, half-life, maximum plasma drug concentration, area under the drug-time curve were calculated.

[4] = system: subcutaneous xenograft tumor of human colorectal cancer LoVo cells; experiment: In vivo pharmacodynamics on subcutaneous xenograft tumor of human colorectal cancer LoVo cells in BALB/c nude mouse model; parameters: species or system BALB/c nude mice; details: oral 40 mg/kg, twice a day, 4 days on and 3 days rest per week, 21 days of administration
Description: In this assay, the inhibitory effect of the compound of the present disclosure on the growth of subcutaneous xenograft tumor of human colorectal cancer LoVo cells was studied at an oral dosage of 40 mg/kg, twice a day, with 4 consecutive days of administration and 3 days of rest per week.
Assay method: The selected assay animals (provided by Shanghai Sippe-Bk Lab Animal Co., Ltd.) were BALB/c nude mice, 6-8 weeks old, weighing 18-22 grams.
Human colon cancer LoVo cells were cultured in a single layer in vitro with a culture condition of Ham's F-12 medium plus 10% fetal bovine serum, 100 U/mL penicillin, 100 μg/mL streptomycin and 2 mM glutamine, 37° C., 5% CO2. Cells were routinely digested and passaged with trypsin-EDTA twice a week. When the cell saturation was 80%-90%, the cells were collected, counted and inoculated. 0.1 mL (10×10^6 cells) of LoVo cells were subcutaneously inoculated on the right back of each nude mouse, and the mice were grouped and administered when the average tumor volume reached 146 mm^3. Tumor diameters were measured twice a week with vernier calipers. The calculation formula of tumor volume was: V=0.5 a×b^2, wherein a and b represent the long and short diameters of tumor, respectively.
The antitumor efficacy of the compound was evaluated by TGI (%) or relative tumor proliferation rate T/C (%). TGI (%) reflected the inhibition rate of tumor growth. […]

SMILES	IC50 [1] [nM]	inhibition at 0.0002 µM [2] [%]	inhibition at 0.025 µM [2] [%]	also measured
C[C@@H]1COCCN1c1cc(N2CCC3(CNC3)C2)c2c(F)cnc(-c3ccn[nH]3)c2n1 [Example 27]	374	8.45	78.3	–
Cc1n[nH]c(C)c1-c1cc(N2CCOC[C@H]2C)nc2c(-c3ccn[nH]3)ncc(F)c12 [Example 17]	99	–	–	–
Cc1cc(-c2cc(N3CCOC[C@H]3C)nc3c(-c4ccn[nH]4)ncc(F)c23)n(C)n1 [Example 16]	31	12.3	97.5	–
C[C@@H]1COCCN1c1cc(-c2ccncc2F)c2c(F)cnc(-c3ccn[nH]3)c2n1 [Example 22]	80	–	–	–
C[C@@H]1COCCN1c1cc(C2CC2)c2c(F)cnc(-c3ccn[nH]3)c2n1 [Example 9]	89	–	–	–
Cc1cnccc1-c1cc(N2CCOC[C@H]2C)nc2c(-c3ccn[nH]3)ncc(F)c12 [Example 20]	41	6.34	95.5	–
C[C@@H]1COCCN1c1cc(C2(C#N)CCOCC2)c2c(F)cnc(-c3ccn[nH]3)c2n1 [Example 3]	61	4.52	93.2	–
C[C@@H]1COCCN1c1cc(C2CCOCC2)c2c(F)cnc(-c3ccn[nH]3)c2n1 [Example 11]	59	–	–	–
Cc1cnn(C)c1-c1cc(N2CCOC[C@H]2C)nc2c(-c3ccn[nH]3)ncc(F)c12 [Example 2]	78	–	–	–
C[C@@H]1COCCN1c1cc(-c2ccnn2C)c2c(F)cnc(-c3ccn[nH]3)c2n1 [Example 1]	64	10.8	98	clearance ([3]; Intravenous injection (1 mg/kg), read-out: Clearance rate): 13.7 mL/min/kg; half-life ([3]; Intravenous injection (1 mg/kg), read-out: Half-life T1/2 (converted)): 31.7 min; AUC(0-t) ([3]; Oral (10 mg/kg), read-out: Area under the drug-time curve AUC0-24 h): 41.2 µM·h; Cmax ([3]; Oral (10 mg/kg), read-out: Maximum plasma drug concentration Cmax): 23.6 µM; TGI (%) [4]: 92.4%
CC(C)Oc1cc(N2CCOC[C@H]2C)nc2c(-c3ccn[nH]3)ncc(F)c12 [Example 8]	181	3.79	75.9	–
Cn1nccc1-c1cc(N2CC3CCC(C2)O3)nc2c(-c3ccn[nH]3)ncc(F)c12 [Example 29]	475	5.34	64.5	–
C[C@@H]1COCCN1c1cc(N2CCOCC2)c2c(F)cnc(-c3ccn[nH]3)c2n1 [Example 13]	66	–	–	–
C[C@@H]1COCCN1c1cc(-c2ccnc3[nH]ccc23)c2c(F)cnc(-c3ccn[nH]3)c2n1 [Example 24]	59	9.72	88	–
C[C@@H]1COCCN1c1cc(-c2ccc(S(C)(=O)=O)cc2)c2c(F)cnc(-c3ccn[nH]3)c2n1 [Example 23]	84	–	–	–
Cn1nccc1-c1cc(N2C3CCC2COC3)nc2c(-c3ccn[nH]3)ncc(F)c12 [Example 28]	253	–	–	–
Cc1ncccc1-c1cc(N2CCOC[C@H]2C)nc2c(-c3ccn[nH]3)ncc(F)c12 [Example 21]	77	–	–	–
C[C@@H]1COCCN1c1cc(-c2ncnn2C)c2c(F)cnc(-c3ccn[nH]3)c2n1 [Example 6]	395	–	–	–
Cc1nn(C)cc1-c1cc(N2CCOC[C@H]2C)nc2c(-c3ccn[nH]3)ncc(F)c12 [Example 14]	103	–	–	–
C[C@@H]1COCCN1c1cc(-c2cnnn2C)c2c(F)cnc(-c3ccn[nH]3)c2n1 [Example 4]	141	–	–	–
C[C@@H]1COCCN1c1cc(C2(O)CCOCC2)c2c(F)cnc(-c3ccn[nH]3)c2n1 [Example 12]	129	–	–	–
Cc1noc(C)c1-c1cc(N2CCOC[C@H]2C)nc2c(-c3ccn[nH]3)ncc(F)c12 [Example 15]	182	–	–	–
Cc1nnn(C)c1-c1cc(N2CCOC[C@H]2C)nc2c(-c3ccn[nH]3)ncc(F)c12 [Example 18]	146	–	–	–
C[C@@H]1COCCN1c1cc(C2=CCOCC2)c2c(F)cnc(-c3ccn[nH]3)c2n1 [Example 10]	82	–	–	–
